The source of these data is patent US12077503B2, “Substituted cyclic amides and their use as herbicides” (FMC CORPORATION, priority 2015, dated 2024).

What all share (assay type): in vivo
In assay [1] the test system is Kochia (Kochia scoparia). Put plainly: Test A preemergence. To be noted: Bassia scoparia, pre-emergence, 240 h; for pest or weed control at 125 g/ha: 125 g ai/ha, 0 to 100 scale where 0 is no effect and 100 is complete control; for pest or weed control at 500 g/ha: 500 g ai/ha. The procedure, abridged: (§1)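 Treatment is preemergence as a directed soil spray after planting, or postemergence at the one- to two-leaf stage, with test chemical in a non-phytotoxic solvent mixture plus surfactant. Plants stay in the greenhouse about 10 d before visual injury scoring on a 0 to 100 scale versus untreated controls.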

The test system of assay [2] is ragweed (common ragweed, Ambrosia elatior). In words: Test A preemergence. To be noted: Ambrosia artemisiifolia, pre-emergence, 240 h; for pest or weed control at 500 g/ha: 500 g ai/ha; for pest or weed control at 125 g/ha: 125 g ai/ha, 0 to 100 scale where 0 is no effect and 100 is complete control. The procedure, abridged:
as §1

Assay [3] concerns pigweed (Amaranthus retroflexus). In words: Test A preemergence. To be noted: Amaranthus retroflexus, pre-emergence, 240 h; for pest or weed control at 125 g/ha: 125 g ai/ha, 0 to 100 scale where 0 is no effect and 100 is complete control; for pest or weed control at 500 g/ha: 500 g ai/ha.
In assay [4] the test system is ryegrass, Italian (Italian ryegrass, Lolium multiflorum). Put plainly: Test A preemergence. To be noted: Lolium multiflorum, pre-emergence, 240 h; for pest or weed control at 500 g/ha: 500 g ai/ha; for pest or weed control at 125 g/ha: 125 g ai/ha, 0 to 100 scale where 0 is no effect and 100 is complete control. In outline:
as §1

For assay [5], the system named is giant foxtail (Setaria faberii). Put plainly: Test A preemergence. The conditions noted are these: Setaria faberi, pre-emergence, 240 h; for pest or weed control at 125 g/ha: 125 g ai/ha, 0 to 100 scale where 0 is no effect and 100 is complete control; for pest or weed control at 500 g/ha: 500 g ai/ha. In outline:
as §1

Assay [6] deals with barnyardgrass (Echinochloa crus-galli). In words: Test A preemergence. To be noted: Echinochloa crus-galli, pre-emergence, 240 h; for pest or weed control at 125 g/ha: 125 g ai/ha, 0 to 100 scale where 0 is no effect and 100 is complete control; for pest or weed control at 500 g/ha: 500 g ai/ha. In outline:
as §1

Assay [7] has as its system Kochia (Kochia scoparia). Put plainly: Test A postemergence. To be noted: Bassia scoparia, post-emergence, 240 h, 125 g ai/ha. The procedure, abridged:
as §1

For assay [8], the system named is ragweed (common ragweed, Ambrosia elatior). Put plainly: Test A postemergence. To be noted: Ambrosia artemisiifolia, post-emergence, 240 h, 125 g ai/ha. In outline: as §1
Assay [9] deals with Galium (catchweed bedstraw, Galium aparine). Put plainly: Test A postemergence. To be noted: Galium, post-emergence, 240 h, 125 g ai/ha. In outline: as §1
A further assay concerns corn (Zea mays). Put plainly: Test A postemergence. To be noted: Zea mays, post-emergence, 240 h, 125 g ai/ha; for plant injury at 125 g/ha: postemergence, visual injury rating after approximately 10 d, read-out: Corn plant response rating (0 to 100 scale, 0 no effect, 100 complete control). In outline: as §1
For assay [10], the system named is pigweed (Amaranthus retroflexus). Put plainly: Test A postemergence. To be noted: Amaranthus retroflexus, post-emergence, 240 h, 125 g ai/ha. In outline:
as §1

Assay [11] has as its system ryegrass, Italian (Italian ryegrass, Lolium multiflorum). In words: Test A postemergence. The conditions noted are these: Lolium multiflorum, post-emergence, 240 h, 125 g ai/ha. In outline: as §1
The subject of assay [12] is wheat (Triticum aestivum). Put plainly: Test A postemergence. The conditions noted are these: Triticum aestivum, post-emergence, 240 h, 125 g ai/ha. The procedure, abridged:
as §1

In assay [13] the test system is giant foxtail (Setaria faberii). Put plainly: Test A postemergence. The conditions noted are these: Setaria faberi, post-emergence, 240 h, 125 g ai/ha. The procedure, abridged: as §1
Assay [14] has as its system barnyardgrass (Echinochloa crus-galli). In words: Test A postemergence. To be noted: Echinochloa crus-galli, post-emergence, 240 h, 125 g ai/ha. The procedure, abridged: as §1
[15] abbreviates: preemergence, read-out: Kochia plant response rating.
The mark [16] stands for this setting: preemergence, read-out: Pigweed plant response rating.
Setting [17] is: preemergence, read-out: Foxtail, Giant plant response rating.
The mark [18] stands for this setting: preemergence, read-out: Barnyardgrass plant response rating.
Where [19] appears, read: Preemergence, visual injury vs untreated controls after approximately 10 d, read-out: Kochia plant response rating (0 to 100 scale where 0 is no effect and 100 is complete control).
Where [20] appears, read: preemergence, read-out: Ragweed plant response rating.
Where [21] appears, read: Preemergence, visual injury vs untreated controls after approximately 10 d, read-out: Ragweed plant response rating (0 to 100 scale where 0 is no effect and 100 is complete control).
The mark [22] stands for this setting: Preemergence, visual injury vs untreated controls after approximately 10 d, read-out: Pigweed plant response rating (0 to 100 scale where 0 is no effect and 100 is complete control).
Setting [23] is: preemergence, read-out: Ryegrass, Italian plant response rating.
[24] abbreviates: Preemergence, visual injury vs untreated controls after approximately 10 d, read-out: Ryegrass, Italian plant response rating (0 to 100 scale where 0 is no effect and 100 is complete control).
Setting [25] is: Preemergence, visual injury vs untreated controls after approximately 10 d, read-out: Foxtail, Giant plant response rating (0 to 100 scale where 0 is no effect and 100 is complete control).
[26] abbreviates: Preemergence, visual injury vs untreated controls after approximately 10 d, read-out: Barnyardgrass plant response rating (0 to 100 scale where 0 is no effect and 100 is complete control).
Where [27] appears, read: postemergence, visual injury rating after approximately 10 d, read-out: Kochia plant response rating (0 to 100 scale, 0 no effect, 100 complete control).
The mark [28] stands for this setting: postemergence, visual injury rating after approximately 10 d, read-out: Ragweed plant response rating (0 to 100 scale, 0 no effect, 100 complete control).
The mark [29] stands for this setting: postemergence, visual injury rating after approximately 10 d, read-out: Galium plant response rating (0 to 100 scale, 0 no effect, 100 complete control).
[30] abbreviates: postemergence, visual injury rating after approximately 10 d, read-out: Pigweed plant response rating (0 to 100 scale, 0 no effect, 100 complete control).
Where [31] appears, read: postemergence, visual injury rating after approximately 10 d, read-out: Ryegrass, Italian plant response rating (0 to 100 scale, 0 no effect, 100 complete control).
Where [32] appears, read: postemergence, visual injury rating after approximately 10 d, read-out: Wheat plant response rating (0 to 100 scale, 0 no effect, 100 complete control).
Setting [33] is: postemergence, visual injury rating after approximately 10 d, read-out: Foxtail, Giant plant response rating (0 to 100 scale, 0 no effect, 100 complete control).
Setting [34] is: postemergence, visual injury rating after approximately 10 d, read-out: Barnyardgrass plant response rating (0 to 100 scale, 0 no effect, 100 complete control).

Like-named read-outs stand apart in the source and are kept apart here.

Consider `CN1C[C@H](c2ccc(C(F)(F)F)cc2)[C@@H](C(=O)Nc2ccc(F)cc2C(F)(F)F)C1=O` [Compound 942], for which the pest or weed control at 125 g/ha with Kochia (Kochia scoparia) [1] (setting [15]) amounted to 70%; in assay [3] (setting [16]) it was 80%; in assay [5] (setting [17]), 90%; in [6] (setting [18]), 70%; in the assay on Kochia (Kochia scoparia) [7] (Postemergence, visual injury after approximately 10 d, 0 to 100 scale where 0 is no effect and 100 is complete control, read-out: Plant response rating, Kochia), 30%; in [8] (Postemergence, visual injury after approximately 10 d, 0 to 100 scale where 0 is no effect and 100 is complete control, read-out: Plant response rating, Ragweed), 0%. Also, the pest or weed control at 125 g/ha amounted to 50% in assay [9] (Postemergence, visual injury after approximately 10 d, 0 to 100 scale where 0 is no effect and 100 is complete control, read-out: Plant response rating, Galium); 70% in [10] (Postemergence, visual injury after approximately 10 d, 0 to 100 scale where 0 is no effect and 100 is complete control, read-out: Plant response rating, Pigweed); 0% in assay [11] (Postemergence, visual injury after approximately 10 d, 0 to 100 scale where 0 is no effect and 100 is complete control, read-out: Plant response rating, Ryegrass, Italian); 80% in assay [13] (Postemergence, visual injury after approximately 10 d, 0 to 100 scale where 0 is no effect and 100 is complete control, read-out: Plant response rating, Foxtail, Giant); 60% in assay [14] (Postemergence, visual injury after approximately 10 d, 0 to 100 scale where 0 is no effect and 100 is complete control, read-out: Plant response rating, Barnyardgrass). Moreover, the pest or weed control at 500 g/ha amounted to 90% in the assay on Kochia (Kochia scoparia) [1] (preemergence, visual injury rating about 10 d after treatment, 0 to 100 scale (0 no effect, 100 complete control), read-out: Kochia plant response rating); 50% in assay [2] (preemergence, visual injury rating about 10 d after treatment, 0 to 100 scale (0 no effect, 100 complete control), read-out: Ragweed plant response rating); 90% in assay [3] (preemergence, visual injury rating about 10 d after treatment, 0 to 100 scale (0 no effect, 100 complete control), read-out: Pigweed plant response rating); 20% in assay [4] (preemergence, visual injury rating about 10 d after treatment, 0 to 100 scale (0 no effect, 100 complete control), read-out: Ryegrass, Italian plant response rating); 90% in [5] (preemergence, visual injury rating about 10 d after treatment, 0 to 100 scale (0 no effect, 100 complete control), read-out: Foxtail, Giant plant response rating); 90% in assay [6] (preemergence, visual injury rating about 10 d after treatment, 0 to 100 scale (0 no effect, 100 complete control), read-out: Barnyardgrass plant response rating). For the same compound, the Corn plant response rating (crop injury, 0 = no effect, 100 = complete kill) at 125 g/ha in the assay with corn (Zea mays) (Postemergence, visual injury after approximately 10 d, 0 to 100 scale where 0 is no effect and 100 is complete control) turned out to be 0%. Besides, in assay [12] (Postemergence, visual injury after approximately 10 d, 0 to 100 scale where 0 is no effect and 100 is complete control, read-out: Plant response rating, Wheat), the plant injury at 125 g/ha was 20%.

With `Cc1cc(F)cc([C@H]2CN(C)C(=O)[C@@H]2C(=O)Nc2ccccc2F)c1` [Compound 850], the pest or weed control at 125 g/ha stood at 30% with Kochia (Kochia scoparia) [1] (setting [15]); 0% in [2] (setting [20]); 20% in [3] (setting [16]); 70% in assay [4] (setting [23]); 90% in assay [5] (setting [17]); 90% in [6] (setting [18]). The pest or weed control at 125 g/ha in the assay with Kochia (Kochia scoparia) [7] (setting [27]) worked out at 0%; in assay [8] (setting [28]) it was 0%; in assay [9] (setting [29]) it was 30%; in assay [10] (setting [30]) it was 0%; in [11] (setting [31]), 0%; in assay [13] (setting [33]), 80%. Further, the pest or weed control at 125 g/ha in assay [14] (setting [34]) stood at 90%. Also, the pest or weed control at 500 g/ha came out at 70% in the assay on Kochia (Kochia scoparia) [1] (setting [19]); 0% in assay [2] (setting [21]); 30% in assay [3] (setting [22]); 70% in assay [4] (setting [24]); 90% in assay [5] (setting [25]); 90% in assay [6] (setting [26]). Also, the plant injury at 125 g/ha stood at 30% in the assay with corn (Zea mays) and 20% in assay [12] (setting [32]).

On to `N#Cc1cccc(NC(=O)[C@H]2C(=O)NC[C@@H]2c2cccc(C(F)(F)F)c2)c1F` [Compound 829], for which the pest or weed control at 125 g/ha with Kochia (Kochia scoparia) [1] (setting [15]) amounted to 60%; in [2] (setting [20]), 30%; in assay [3] (setting [16]) it was 0%; in assay [4] (setting [23]) it was 20%; in assay [5] (setting [17]), 90%; in assay [6] (setting [18]) it was 90%. Also, the pest or weed control at 125 g/ha was determined as 0% in the assay on Kochia (Kochia scoparia) [7] (setting [27]); 0% in assay [8] (setting [28]); 30% in assay [9] (setting [29]); 0% in assay [10] (setting [30]); 20% in [11] (setting [31]); 90% in assay [13] (setting [33]). The pest or weed control at 125 g/ha in assay [14] (setting [34]) was determined as 80%. Further, the pest or weed control at 500 g/ha was determined as 90% in the assay on Kochia (Kochia scoparia) [1] (setting [19]); 70% in assay [2] (setting [21]); 60% in assay [3] (setting [22]); 40% in assay [4] (setting [24]); 90% in assay [5] (setting [25]); 90% in assay [6] (setting [26]). Besides, the plant injury at 125 g/ha (in the assay on corn (Zea mays); in assay [12] (setting [32])) was 30% each time.
